Publication PMC7391726, “Fatty acid mimetic PBI-4547 restores metabolic homeostasis via GPR84 in mice with non-alcoholic fatty liver disease” (Scientific Reports, 2020)
Where two headings read alike, the source gives them in different places.

Experiments:
PPARα = biological target: T1, PPARα (Homo sapiens, UniProt Q07869); assay: LanthaScreen TR-FRET competitive binding assay, PPARα LBD; settings: Cheng-Prusoff; read-out: Ki inhibition constant, PPARα LBD
T1 construct: glutathione S-transferase (GST)-tagged human PPAR-LBD; purchased Fisher Scientific
T1 sequence (Q07869 239-466 limits assumed): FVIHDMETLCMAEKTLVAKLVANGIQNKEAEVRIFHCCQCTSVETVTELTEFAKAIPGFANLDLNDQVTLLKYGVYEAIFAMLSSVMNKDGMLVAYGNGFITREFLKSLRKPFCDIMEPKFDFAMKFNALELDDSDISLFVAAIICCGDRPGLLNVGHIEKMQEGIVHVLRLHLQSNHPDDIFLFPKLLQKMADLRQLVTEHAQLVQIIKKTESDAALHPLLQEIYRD
Description: The peroxisome proliferator-activated receptors (PPARs), PPARα, PPARδ, and PPARγ are ligand-dependent transcription factors regulated by FAs, including MCFAs, which control expression of several key metabolism-associated genes. We thus characterized the binding and transcriptional activity of PBI-4547 to these receptors. A LanthaScreen TR-FRET competitive binding assay was used to determine the binding affinity of PBI-4547 in comparison to the full control agonists GW7647 (PPARα), GW0742 (PPARδ), and rosiglitazone (PPARγ).
The LanthaScreen time-resolved fluorescence resonance energy transfer (TR-FRET) PPARα, PPARδ and PPARγ competitive binding assay (Fisher Scientific) was performed according to the manufacturer’s protocol. […] The FRET signal was measured using an Infinite M1000 microplate reader by excitation at 332 nm and emission at 520 nm for fluorescein and 490 nm for terbium. Competitive ligand binding to PPAR is detected by a test compound’s ability to displace the Fluormone pan-PPAR Green from the LBD, which results in a decrease of the 520 nm/490 nm TR-FRET ratio. The inhibition constant (Ki) of the competitor ligand was calculated by applying the Cheng-Prusoff equation.

standard diet-fed mice = assay: Standard diet-fed mice; type: in vivo, mouse
Description: The well-established high-fat diet (HFD) mouse model of obesity was used to study the impact of PBI-4547 on the onset and progression of NAFLD. A 14-week HFD regimen led to significant weight gain in both male and female mice. […] Moreover, PBI-4547 decreased serum triglycerides while enhancing adiponectin levels. […] Of note, the effects of PBI-4547 on bodyweight, food consumption, glucose tolerance, fasting blood glucose, insulin resistance and HOMA-β indices were absent in standard diet-fed mice (Table S1).
WT or Gpr84^−/− mice, as previously described, (aged 10–14 weeks at the beginning of the experiment) were either fed a standard diet (STD) or a high-fat diet (HFD) (Envigo #TD.06414) for 14 weeks. At this point, mice were administered either vehicle (water) or PBI-4547 (10 mg/kg) on a daily basis for 6 (WT study) or 8 (WT vs KO study) weeks by gastric gavage, and were sacrificed thereafter. Liver and WAT tissues were fixed in 10% formalin for histological analyses or flash frozen in liquid nitrogen for RT-PCR analyses. All animal studies were reviewed and approved by the animal care and use committee of the Institut National de la Recherche Scientifique – Armand-Frappier (Laval, QC, Canada) and the University of Ottawa’s Animal Care and Veterinary Services (Ottawa, ON, Canada). Protocols were approved and undertaken according to the Canadian Council on Animal Care guidelines.

ob/ob mice = assay: ob/ob leptin-deficient genetic mouse model of metabolic syndrome; type: in vivo
Description: We next sought to confirm our above findings obtained from the diet-induced model of obesity by using the ob/ob leptin-deficient genetic mouse model of metabolic syndrome. […] Additionally, the mRNA expression profiles of glucose- and FA-related genes in liver (Fig. S4D,E) and WAT (Fig. S5) also differed between pioglitazone- and PBI-4547-treated mice.

GPR40 = biological target: T2, GPR40 (Homo sapiens, UniProt O14842); assay: BRET Gαq / Gαi2 activation biosensors in HEK293 cells transfected with GPR40; type: cell-based
T2 construct: expressed in transfected cells; host or cells: HEK293
Procedure: Figure 1 PBI-4547 binding and activity on GPR84, GPR40, GPR120, and PPAR receptors. (A) Chemical structure of PBI-4547. (B) Gi pathway activation was monitored in HEK293 cells transfected with GPR84 and the Gαi2 activation biosensor. Cells were co-treated with […] sodium decanoate and increasing concentrations of PBI-4547, and BRET variation compared with vehicle was measured. (C) β-arrestin 2 recruitment to activated GPR120 receptor was monitored in HEK293 cells transfected with RLuc8-β-arrestin 2 and GPR120-GFP10. (D) Cells transfected with GPR40 and Gαq or Gαi2 activation biosensor were exposed to increasing concentrations of PBI-4547 or to 500 µM of sodium decanoate, and BRET variation compared with vehicle was measured. Cells were exposed to increasing concentrations of PBI-4547 or to 100 µM of GW9508, and BRET variation compared with vehicle was measured. […] Data in (B–D) are expressed as means ± SEM of 4–5 experiments; data in (E,F) are from a representative experiment from a total of 3 to 4 independent experiments. […]
BRET measurements in transiently transfected HEK293 cells were performed as previously described. Ligands were incubated with cells at room temperature for 10 min (G protein biosensors) or 25 min (β-arrestin/GPR120) before collecting BRET[2] readings between Rluc8 and GFP10.

T2 sequence (O14842 whole entry, species assumed): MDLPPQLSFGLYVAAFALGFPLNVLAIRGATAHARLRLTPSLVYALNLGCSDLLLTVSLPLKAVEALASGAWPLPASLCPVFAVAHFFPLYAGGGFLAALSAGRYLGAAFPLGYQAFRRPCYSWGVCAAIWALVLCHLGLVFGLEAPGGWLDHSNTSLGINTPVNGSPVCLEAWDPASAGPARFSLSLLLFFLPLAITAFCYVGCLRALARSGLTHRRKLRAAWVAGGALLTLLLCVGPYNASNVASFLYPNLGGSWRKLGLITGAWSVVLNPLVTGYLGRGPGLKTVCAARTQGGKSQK

Ki (PPARα): 0.489 µM
EC50 (GPR40; Gαi2 biosensor, read-out: EC50, GPR40 Gαi2 biosensor BRET signal decrease): 27 µM
EC50 (GPR40; Gαq biosensor, read-out: EC50, GPR40 Gαq biosensor BRET signal decrease): 30 µM
SMILES: CCCCCc1cc(CCCCC)cc(CC(=O)[O-])c1.[Na+] [PBI-4547, 2-[3,5-dipentylphenyl]acetate sodium salt]
effects on bodyweight, food consumption, glucose tolerance, fasting blood glucose, insulin resistance and HOMA-β indices (standard diet-fed mice): absent
bodyweight (ob/ob mice): significantly reduced
prevention of clinical manifestations of fatty liver disease (liver histology) (ob/ob mice): more effective than pioglitazone
